Data set [1] deals with acetylcholine-induced bronchospasm. The data set can be described thus: Bronchospasmolytic activity (Konzett-Rossler): inhibition of acetylcholine-induced bronchospasm in guinea-pigs. It is filed as in vivo. Particulars: Cavia porcellus, iv, guinea-pig, urethane anaesthesia; read-out: Bronchospasmolytic effect (ED50) compared to acetylcholine. How it is done:
(§1) The test substances were administered in aqueous solution either intravenously (i.v.) or intraduodenally (i.d.). The ED50 values, which represent that dose in mg/kg at which the experimentally produced spasm is decreased by one half compared to that in untreated animals, were determined graphically from the dose-activity curves.

For data set [2] the following is noted: background statement; cited from earlier work.
Another data set can be described thus: Ratio of LD50 to ED50. The class given is in vivo, mouse (LD50); guinea-pigs (ED50). The conditions noted are these: LD50 i.v. mouse from German Offenlegungsschrift 2,716,402; ED50 i.v. guinea-pig. How it is done: as §1
Determination of the LD50 values was by the standard method of the mortality occurring within 7 days among NMRI mice after a single intravenous (i.v.), intraperitoneal (i.p.) or oral (p.o.) administration.

A further data set relates to central nervous system. The conditions noted are these: according to German Offenlegungsschrift No. 2,716,402; markedly less than theophylline; cited from earlier work.
In data set [3] the test system is histamine-induced bronchospasm. As to the kind of experiment: Bronchospasmolytic activity (Konzett-Rossler): inhibition of histamine-induced bronchospasm in guinea-pigs. It is filed as in vivo. Particulars: Cavia porcellus, iv, guinea-pig, urethane anaesthesia; read-out: Bronchospasmolytic effect (ED50) compared to histamine. As for the experimental part:
as §1

The conditions of data set [4]: cited from earlier work; for side-effects: background statement.
In data set [5] the test system is serotonine-induced bronchospasm. The data set can be described thus: Bronchospasmolytic activity (Konzett-Rossler): inhibition of serotonine-induced bronchospasm in guinea-pigs. The class given is in vivo. The conditions noted are these: Cavia porcellus, iv, guinea-pig, urethane anaesthesia; read-out: Bronchospasmolytic effect (ED50) compared to serotonine. How it is done:
as §1

The next data set relates to NMRI mice. The conditions noted are these: mouse, i.v.; according to German Offenlegungsschrift 2,716,402; 10080 min; cited from earlier work.
For data set [6] the following is noted: background statement; cited from earlier work. The source holds these as a separate data set.

Usually ED50 stands for the midpoint of the dose-response relation. Turning to `CCCn1c(=O)c2c(ncn2CC(O)CO)n(CCC)c1=O` (stereo not shown) [7-(2,3-dihydroxypropyl)-1,3-dipropylxanthine], the ED50 was greater than 10 mg/kg in data set [1], 6.5 mg/kg in data set [3] and 10 mg/kg in data set [5]. Besides, the “bronchospasmolytic activity compared to theophylline” value in data set [2] was “almost to reach the bronchospasmolytic activity of theophylline”. Further, in the data set “Ratio of LD50 to ED50”, the “ratio of LD50 to ED50 (head is drawing 107)” value is reported as less than 32. For the same compound, the “stimulation of the central nervous system” value in the data set with central nervous system is “stimulation of the central nervous system”. Moreover, the “acute toxicity compared to theophylline” value in data set [4] (German Offenlegungsschrift No. 2,716,402) is recorded as “lower acute toxicity”. Also, in [4], the side-effects entry is given as “fewer disadvantageous side-effects”. Moreover, in the data set with NMRI mice, the “Toxicity LD50” value is recorded as 287 mg/kg. In addition, the water solubility entry in data set [6] is on record as “readily soluble in water”.

For the compound `Cn1c(=O)c2c(ncn2CC(O)CO)n(C)c1=O` (stereo not shown) [Diphylline, 7-(2,3-dihydroxypropyl)-1,3-dimethylxanthine], the ED50 in data set [1], in data set [3] and in data set [5] was greater than 30 mg/kg each time. The “bronchospasmolytic activity compared to theophylline” value in data set [2] is listed as “drastic decrease in the bronchospasmolytic activity”. Further, in “Ratio of LD50 to ED50”, the “ratio of LD50 to ED50 (head is drawing 107)” value is less than 30. Also, the “stimulation of the central nervous system” value in the data set with central nervous system is recorded as “stimulation of the central nervous system”. For the same compound, the side-effects entry in data set [4] is “much less pronounced”. In addition, in the data set with NMRI mice, the “Toxicity LD50” value is listed as 886 mg/kg. Further, the water solubility result in data set [6] was “good water solubility”.

Values taken from patent US4616020A, “Medicaments, vicinal dihydroxyalkylxanthines contained therein, processes for the preparation of these xanthine compounds and intermediate products suitable for these” (Hoechst Aktiengesellschaft, priority 1981, dated 1986).
